Experimental data as given in patent publication US11129840B2, “Methods for identifying novel dosing regimens” (Zavante Therapeutics, Inc., priority 2017, dated 2021).
Values after ≈ are worked out from the molar mass of the structure shown. Read-outs that look alike come from different tables or passages of the source.

Experiments:
Enterobacteriaceae [1] = assay: Neutropenic murine-thigh infection model, AUC:MIC ratio targets; format: in vivo
[2] = system: MR coagulase negative staphylococci (MR-CoNS); assay: Reference agar dilution MIC, resistant SENTRY isolates; format: cell-based
Protocol: (§1) Utilizing existing interpretative criteria for the marketed oral agent (dosed at 3 g) for analysis purposes, FOS susceptibility (S) was determined for recent resistant GN and GP clinical isolates including vancomycin-resistant Enterococcus faecium (VREM) and E. faecalis (VREF); methicillin-resistant Staphylococcus aureus (MRSA) and MR coagulase negative staphylococci (MR-CoNS), Escherichia coli (EC) and Klebsiella pneumoniae (KPN) containing extended spectrum beta-lactamases (ESBL) or were carbapenem resistant (CR); and), Pseudomonas aeruginosa (PSA) non-susceptible to ceftazidime (CAZ-NS) or to meropenem (MER-NS). […] Isolates were collected from hospitalized patients in the US as a part of the SENTRY surveillance program, 2013-2015.

[3] = system: methicillin-resistant Staphylococcus aureus (MRSA); assay: as above; format: cell-based
Protocol: as §1

[4] = system: EC with an ESBL phenotype; assay: as above; format: cell-based; conditions: Escherichia coli
Protocol: as §1

[5] = system: vancomycin-resistant Enterococcus faecium (VREM); assay: as above; format: cell-based
Protocol: as §1

[6] = Single dose plasma PK in mice after SC administration; conditions: mouse, in vivo
[7] = system: 5 EC (4 ESBL), 3 KPN (2 CR), and 2 PSA; assay: MIC by agar dilution, isolates of the thigh infection study; format: cell-based; conditions: 10 isolates
Protocol: 5 EC (4 ESBL), 3 KPN (2 CR), and 2 PSA were used. MICs were determined by agar dilution. […] PK/PD index determination was performed using a dose fractionation (DF) study design. […] The dose-response data was analyzed using the Emax Hill equation.

[8] = system: Carbapenem-resistant Enterobacteriaceae (CRE) clinical isolates; assay: Agar dilution susceptibility, CRE clinical isolates; format: cell-based
C. freundii complex = assay: Reference agar dilution MIC, SENTRY US isolates; format: cell-based; conditions: Citrobacter freundii; randomly selected
Protocol: (§2) FOS was tested against over 1,400 GN and 800 GP clinical isolates collected in US medical centers as part of the SENTRY Antimicrobial Surveillance Program (96% of isolates from 2015) and a selection of 29 GN and 20 GP anaerobes. Isolates were susceptibility (S) tested against FOS and comparators by reference agar dilution (25 μg/mL glucose-6-phosphate supplementation) using existing FDA breakpoints of the oral formulation for comparative assessments.

Serratia marcescens = assay: Reference agar dilution MIC, SENTRY US isolates; format: cell-based; conditions: randomly selected
Protocol: as §2

Proteus mirabilis = assay: Reference agar dilution MIC, SENTRY US isolates; format: cell-based; conditions: randomly selected
Protocol: as §2

Escherichia coli = assay: Reference agar dilution MIC, SENTRY US isolates; format: cell-based; conditions: randomly selected
Protocol: as §2

Staphylococcus aureus = assay: Reference agar dilution MIC, SENTRY US isolates; format: cell-based
Protocol: as §2

S. agalactiae = assay: Reference agar dilution MIC, SENTRY US isolates; format: cell-based; conditions: Streptococcus agalactiae
Protocol: as §2

Enterobacteriaceae [9] = assay: Reference agar dilution MIC, SENTRY US isolates; format: cell-based; conditions: selected Enterobacteriaceae
Protocol: as §2

Klebsiella pneumoniae = assay: Reference agar dilution MIC, SENTRY US isolates; format: cell-based
Protocol: as §2

Enterobacter aerogenes = assay: Reference agar dilution MIC, SENTRY US isolates; format: cell-based; conditions: Klebsiella aerogenes; randomly selected
Protocol: as §2

E. faecalis = assay: Reference agar dilution MIC, SENTRY US isolates; format: cell-based; conditions: FDA oral breakpoints
Protocol: as §2

S. pyogenes = assay: Reference agar dilution MIC, SENTRY US isolates; format: cell-based; conditions: Streptococcus pyogenes
Protocol: as §2

E. faecium = assay: Reference agar dilution MIC, SENTRY US isolates; format: cell-based; conditions: FDA oral breakpoints
Protocol: as §2

[10] = system: coagulase-negative staphylococci (CoNS) excluding S. saprophyticus; assay: Reference agar dilution MIC, SENTRY US isolates; format: cell-based
Protocol: as §2

Enterobacteriaceae [11] = assay: MIC distribution for 1,091 Enterobacteriaceae isolates from USA; format: cell-based
[12] = Phase I safety and tolerability in healthy adult subjects; format: in vivo, human
Protocol: Materials/methods: Phase I, open-label study evaluating IV (ZTI-01) and PO (Monurol®) FOS in healthy adult subjects. […] Blood and urine samples were collected serially before and through 48 hours post-dose and analyzed via LC/MS-MS. Noncompartmental analyses were performed via WinNonlin. Safety was monitored throughout the course of the study.

[13] = system: K. pneumoniae (KPC-producer) isolate; assay: Time-kill kinetic analysis; format: cell-based, Klebsiella pneumoniae
Protocol: TKK were sampled for colony counts at T0, T2, T4, T8 and T24 hours (h). Two Klebsiella pneumoniae isolates (one KPC and one ESBL), two Pseudomonas aeruginosa isolates (non-MDR), and one Acinetobacter baumannii isolate (MDR) were tested.

[14] = system: Carbapenem-resistant Enterobacteriaceae (CRE) clinical isolates; assay: Susceptibility testing, CRE clinical isolates; format: cell-based

Compound: C[C@@H]1O[C@@H]1P(=O)(O)O [FOS, fosfomycin]
- median total-drug plasma AUC:MIC ratio target (Enterobacteriaceae [1]; 1-log10 CFU reduction from baseline at 24 h): 41.6
- median total-drug plasma AUC:MIC ratio target (Enterobacteriaceae [1]; net bacterial stasis at 24 h): 19.1
- MIC ([2]; Staphylococcus capitis): 128 µg/mL (≈ 927 µM)
- MIC ([2]; Staphylococcus hominis): > 256 µg/mL
- No. of isolates with FOS MIC≤64 μg/mL ([2]; of 153 MR-CoNS): 72
- MIC50 ([3]; 101 MRSA): 4 µg/mL (≈ 29 µM)
- MIC90 ([3]; 101 MRSA): 8 µg/mL (≈ 57.9 µM)
- MIC ([3]; all 101 MRSA): ≤ 64 µg/mL
- MIC [4]: > 256 µg/mL
- MIC50 ([4]; 49 EC): 0.5 µg/mL (≈ 3.62 µM)
- MIC90 ([4]; 49 EC): 4 µg/mL (≈ 29 µM)
- MIC ([4]; remaining isolates, read-out: MIC values): ≤ 32 µg/mL
- MIC90 ([5]; Enterococcus faecium): 128 µg/mL (≈ 927 µM)
- MIC50 ([5]; Enterococcus faecium, 81 VREM): 64 µg/mL (≈ 464 µM)
- No. of isolates with an MIC 64 μg/mL ([5]; of 81 VREM): 63
- half-life [6]: 30.6 to 66 min
- MIC range [7]: 1 to 16 µg/mL
- % of isolates susceptible to FOS [8]: 94%
- MIC90 [8]: 512 µg/mL (≈ 3710 µM)
- MIC50 ([8]; 50 isolates): 2 µg/mL (≈ 14.5 µM)
- MIC range ([8]; C-A R isolates): 1 to 64 µg/mL
- MIC ([8]; C-A R isolates, read-out: Median MIC): 8 µg/mL (≈ 57.9 µM)
- MIC ([8]; FOS R isolate with fosA2 and SNP in glpT, read-out: MIC): 256 µg/mL (≈ 1850 µM)
- MIC ([8]; FOS-R isolate harboring fosA3, read-out: MIC): > 1020 µg/mL
- MIC ([8]; third FOS-R isolate (OXA-181+, CTXM-15+Kp), read-out: MIC): 128 µg/mL (≈ 927 µM)
- MIC50 (C. freundii complex): 0.5 µg/mL (≈ 3.62 µM)
- MIC90 (C. freundii complex): 1 µg/mL (≈ 7.24 µM)
- MIC50 (Serratia marcescens): 8 µg/mL (≈ 57.9 µM)
- MIC90 (Serratia marcescens): 16 µg/mL (≈ 116 µM)
- MIC50 (Proteus mirabilis): 1 µg/mL (≈ 7.24 µM)
- MIC90 (Proteus mirabilis): 8 µg/mL (≈ 57.9 µM)
- MIC50 (Escherichia coli; Escherichia coli): 0.5 µg/mL (≈ 3.62 µM)
- MIC90 (Escherichia coli; Escherichia coli): 1 µg/mL (≈ 7.24 µM)
- % S to FOS (Escherichia coli; FDA oral breakpoints): 100.0%
- MIC50 (Staphylococcus aureus): 4 µg/mL (≈ 29 µM)
- MIC90 (Staphylococcus aureus): 8 µg/mL (≈ 57.9 µM)
- MIC50 (S. agalactiae): 8 µg/mL (≈ 57.9 µM)
- MIC90 (S. agalactiae): 64 µg/mL (≈ 464 µM)
- MIC50 (Enterobacteriaceae [9]): 4 µg/mL (≈ 29 µM)
- % of isolates ≤64 μg/mL (Klebsiella pneumoniae): 97.0%
- MIC50 (Klebsiella pneumoniae; Klebsiella pneumoniae): 4 µg/mL (≈ 29 µM)
- MIC90 (Klebsiella pneumoniae; Klebsiella pneumoniae): 16 µg/mL (≈ 116 µM)
- MIC50 (Enterobacter aerogenes): 8 µg/mL (≈ 57.9 µM)
- MIC90 (Enterobacter aerogenes): 16 µg/mL (≈ 116 µM)
- % S (E. faecalis): 99.0%
- % intermediate (E. faecalis): 1.0%
- MIC50 (S. pyogenes): 32 µg/mL (≈ 232 µM)
- MIC90 (S. pyogenes): 64 µg/mL (≈ 464 µM)
- % S (E. faecium): 79.8%
- % intermediate (E. faecium): 19.2%
- MIC50 [10]: 8 µg/mL (≈ 57.9 µM)
- MIC90 ([10]; Staphylococcus saprophyticus): 64 µg/mL (≈ 464 µM)
- MIC90 (Enterobacteriaceae [11]): 16 mgL
- share of TEAE that occurred after the 8 g IV dose ([12]; 8 g IV): 67.9%
- hypocalcemia (most common TEAE) ([12]; after 1 g IV): 17.9%
- bradycardia (most common TEAE) ([12]; after 8 g IV): 28.6%
- % of subjects reporting a treatment-emergent adverse event (TEAE) ([12]; all regimens): 80%
- severity of TEAEs ([12]; all regimens, resolved without sequelae): mild-moderate
- headache (most common FOS-related TEAE) ([12]; human, in vivo): 10.7%
- increase in bacterial growth ([13]; FOS 0.5, 1 and 2×MIC, by 24 h): approximately 2 log10
- log10 reduction in bacterial growth (CFU) ([13]; FOS 2×MIC, by 4 h): > 3 log10
- killing activity ([13]; FOS alone): bactericidal
- MIC ([14]; FOS R isolate with fosA2 and SNP in glpT): 256 µg/mL (≈ 1850 µM)
- MIC ([14]; FOS-R isolate harboring fosA3): > 1020 µg/mL
- No. of isolates with FOS MIC>64 μg/mL ([14]; of 50 isolates): 3
- MIC ([14]; third FOS-R isolate (OXA-181+, CTXM-15+Kp)): 128 µg/mL (≈ 927 µM)
